From patent publication US9540323B2 (BRISTOL-MYERS SQUIBB COMPANY, priority 2012, dated 2017) come the findings set out here.

The subject of test [1] is human platelet rich plasma (PRP). Put plainly: ADP induced platelet aggregation assay. To be noted: Homo sapiens, Platelet, 5 min, read-out: PA IC50 (μM) @ 10 μM ADP, human PRP, 10 μM ADP, AUC at 5 minute.
Test [2] deals with cloned human P2Y1 receptors (Homo sapiens (Human), UniProt P47900). Put plainly: Binding Assay B - Scintillation Proximity Assay (SPA) for P2Y1 binding, [33P] 2MeS-ADP. To be noted: SPA, 0.3 nM [33P] 2MeS-ADP, Cheng-Prusoff; read-out: P2Y1 Ki (nM) using binding assay B. How it is done: Binding Assay B—Scintillation Proximity Assay (SPA) for P2Y1 Binding
Sequence of cloned human P2Y1 receptors (P47900 whole entry): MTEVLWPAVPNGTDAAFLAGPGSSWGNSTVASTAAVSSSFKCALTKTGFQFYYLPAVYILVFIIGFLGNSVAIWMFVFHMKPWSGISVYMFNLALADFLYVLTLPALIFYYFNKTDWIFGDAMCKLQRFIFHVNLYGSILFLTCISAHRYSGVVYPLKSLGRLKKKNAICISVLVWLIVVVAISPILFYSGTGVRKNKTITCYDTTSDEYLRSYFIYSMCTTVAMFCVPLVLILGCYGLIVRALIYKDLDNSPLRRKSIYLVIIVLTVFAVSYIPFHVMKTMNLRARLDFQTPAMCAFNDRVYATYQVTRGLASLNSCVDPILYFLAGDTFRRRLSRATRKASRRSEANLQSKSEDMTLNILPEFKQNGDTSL
A SPA membrane binding assay was used to identify inhibitors of [^33P] […] Reactions were allowed to proceed to completion at room temperature for 1 hour followed by centrifugation of the plate for 5 min. About 40 μL of the aqueous solution was aspirated. Plates were sealed and the [^33P]

For the compound `CC1(CC(F)(F)F)CN(c2ccccc2NC(=O)Nc2ccc(OC(F)(F)F)cc2)c2c(O)ccc(Cl)c21` (centres unmarked) [Example 78, 1-(2-(4-Chloro-7-hydroxy-3-methyl-3-(2,2,2-trifluoroethyl)indolin-1-yl)phenyl)-3-(4-(trifluoromethoxy)phenyl)urea], in test [1], the IC50 was found to be 2.92 µM. Further, the Ki in test [2] amounted to 7.7 nM.
For `CC(C)(C)c1ccc(NC(=O)Nc2ccccc2N2CC(C)(C)c3c(C(F)(F)F)ccc(O)c32)cc1` [Example 13, 1-(4-tert-Butylphenyl)-3-(2-(7-hydroxy-3,3-dimethyl-4-(trifluoromethyl)indolin-1-yl)phenyl)urea], the IC50 in test [1] came out at 0.13 µM. The Ki in test [2] turned out to be 8.2 nM.
In the case of `CC1(C)CN(c2ccccc2NC(=O)Nc2ccc(OC(F)(F)F)cc2)c2c(O)c(F)cc(-c3nc4ccc(Cl)cc4s3)c21` [Example 130, 1-(2-(4-(6-Chlorobenzo[d]thiazol-2-yl)-6-fluoro-7-hydroxy-3,3-dimethylindolin-1-yl)phenyl)-3-(4-(trifluoromethoxy)phenyl)urea], the IC50 in test [1] turned out to be 1.8 µM. The Ki in test [2] is 93.5 nM.
On the same counts, the results for `CC1(C)CN(c2ccccc2NC(=O)Nc2ccc(OC(F)(F)F)cc2)c2c(O)cc(F)c(-c3cccc(CN4CCOCC4)c3)c21` [Example 251, 1-(2-(5-Fluoro-7-hydroxy-3,3-dimethyl-4-(3-(morpholinomethyl)phenyl)indolin-1-yl)phenyl)-3-(4-(trifluoromethoxy)phenyl)urea] are 0.93 µM and 16.9 nM.
On the same counts, the results for `CC1(C)CN(c2ccccc2NC(=O)Nc2ccc(OC(F)(F)F)cc2)c2c(O)cc(F)c(-c3ccno3)c21` [Example 261, 1-(2-(5-Fluoro-7-hydroxy-4-(isoxazol-5-yl)-3,3-dimethylindolin-1-yl)phenyl)-3-(4-(trifluoromethoxy)phenyl)urea] are 1.99 µM and 5.5 nM.
Turning to `CCC1(CC)CN(c2ccccc2NC(=O)Nc2ccc(C(F)(F)F)cc2)c2c(O)ccc(Cl)c21` [Example 52, 1-(2-(4-Chloro-3,3-diethyl-7-hydroxyindolin-1-yl)phenyl)-3-(4-(trifluoromethyl)phenyl) urea], the IC50 in test [1] was determined as 0.28 µM. Further, the Ki in test [2] came to 12.6 nM.
For `Cc1nn(C)c(C)c1-c1c(F)cc(O)c2c1C(C)(C)CN2c1ccccc1NC(=O)Nc1ccc(OC(F)(F)F)cc1` [Example 187, 1-(2-(5-Fluoro-7-hydroxy-3,3-dimethyl-4-(1,3,5-trimethyl-1H-pyrazol-4-yl)indolin-1-yl)phenyl)-3-(4-(trifluoromethoxy)phenyl)urea], the IC50 in test [1] amounted to 1.07 µM. Further, in test [2], the inhibition constant Ki was 19.2 nM.
Consider `CC1(C)CN(c2ccccc2NC(=O)Nc2csc(Cl)n2)c2c(O)cc(F)c(Br)c21` [Example 68, 1-(2-(4-Bromo-5-fluoro-7-hydroxy-3,3-dimethylindolin-1-yl)phenyl)-3-(2-chlorothiazol-4-yl)urea], for which the IC50 in test [1] was determined as 0.6 µM. In addition, the inhibition constant Ki in test [2] was 7.5 nM.
As to `CC1(C)CN(c2ccccc2NC(=O)Nc2nc3ccc(F)cc3s2)c2c(O)cc(F)c(-c3noc(C(F)(F)F)n3)c21` [Example 277, 1-(2-(5-Fluoro-7-hydroxy-3,3-dimethyl-4-(5-(trifluoromethyl)-1,2,4-oxadiazol-3-yl)indolin-1-yl)phenyl)-3-(6-fluorobenzo[d]thiazol-2-yl)urea], the IC50 in test [1] was found to be 0.26 µM. Besides, in test [2], the Ki was found to be 54.9 nM.
Turning to `CC1(C)CN(c2ccccc2NC(=O)Nc2ccc(OC(F)(F)F)cc2)c2c(O)ccc(-c3nc4ccc(Cl)cc4o3)c21` [Example 91, 1-(2-(4-(6-Chlorobenzo[d]oxazol-2-yl)-7-hydroxy-3,3-dimethylindolin-1-yl)phenyl)-3-(4-(trifluoromethoxy)phenyl)urea], the IC50 in test [1] was found to be 0.33 µM. The Ki in test [2] was found to be 65.1 nM.
As to `Cc1cccc2oc(-c3ccc(O)c4c3C(C)(C)CN4c3ccccc3NC(=O)Nc3ccc(OC(F)(F)F)cc3)nc12` [Example 90, 1-(2-(7-Hydroxy-3,3-dimethyl-4-(4-methylbenzo[d]oxazol-2-yl)indolin-1-yl)phenyl)-3-(4-(trifluoromethoxy)phenyl)urea], the half-maximal inhibitory concentration (IC50) in test [1] is 0.43 µM. In test [2], the Ki came to 56.7 nM.
Take `CC1(C)CN(c2ccccc2NC(=O)Nc2nc3ccc(F)nc3s2)c2c(O)ccc(-c3nc4ccc(Cl)cc4o3)c21` [Example 108, 1-(2-(4-(6-Chlorobenzo[d]oxazol-2-yl)-7-hydroxy-3,3-dimethylindolin-1-yl)phenyl)-3-(5-fluorothiazolo[5,4-b]pyridin-2-yl)urea]: the IC50 in test [1] is 0.19 µM. In addition, the Ki in test [2] turned out to be 9.7 nM.
For `CC(C)n1nc(-c2c(F)cc(O)c3c2C(C)(C)CN3c2ccccc2NC(=O)Nc2nc3ccc(F)cc3s2)cc1C(F)(F)F` [Example 253, 1-(2-(5-Fluoro-7-hydroxy-4-(1-isopropyl-5-(trifluoromethyl)-1H-pyrazol-3-yl)-3,3-dimethylindolin-1-yl)phenyl)-3-(6-fluorobenzo[d]thiazol-2-yl)urea] the same measures were 0.12 µM and 33.4 nM.
As for `CC1(C)CN(c2ccccc2NC(=O)Nc2ccc(OC(F)(F)F)cc2)c2c(O)cc(F)c(-c3ccc(F)cc3)c21` [Example 194, 1-(2-(5-Fluoro-4-(4-fluorophenyl)-7-hydroxy-3,3-dimethylindolin-1-yl)phenyl)-3-(4-(trifluoromethoxy)phenyl)urea], the concentration for half-maximal inhibition (IC50) in test [1] was found to be 0.26 µM. For the same compound, in test [2], the Ki came to 6.7 nM.
On to `CC(C)(C)CN1CCC(c2ccc(NC(=O)Nc3ccccc3N3CC(C)(C)c4c(C(F)(F)F)ccc(O)c43)cc2)CC1` [Example 2, 1-(2-(7-Hydroxy-3,3-dimethyl-4-(trifluoromethyl)indolin-1-yl)phenyl)-3-(4-(1-neopentylpiperidin-4-yl)phenyl)urea], for which the IC50 in test [1] is 0.13 µM. For the same compound, the Ki in test [2] came out at 3.4 nM.
With `CC1(C)CN(c2ccccc2NC(=O)Nc2csc(Cl)n2)c2c(O)cc(F)c(-c3cc(C(F)(F)F)no3)c21` [Example 269, 1-(2-Chlorothiazol-4-yl)-3-(2-(5-fluoro-7-hydroxy-3,3-dimethyl 4-(3-(trifluoromethyl)isoxazol-5-yl)indolin-1-yl)phenyl)urea], in test [1], the IC50 came out at 0.39 µM. Moreover, the Ki in test [2] is 1.2 nM.
On to `CC1(C)CN(c2ccccc2NC(=O)Nc2ccc(C(F)(F)F)cc2)c2c(O)ccc(Cl)c21` [Example 57, 1-(2-(4-Chloro-7-hydroxy-3,3-dimethylindolin-1-yl)phenyl)-3-(4-(trifluoromethyl)phenyl) urea], for which the IC50 in test [1] was found to be 0.9 µM. In test [2], the Ki is 8.3 nM.
For `CC1(C)CN(c2ccccc2NC(=O)Nc2nc3ccc(F)cc3s2)c2c(O)cc(F)c(-c3nc4ccc(F)cc4s3)c21` [Example 146, 1-(2-(5-Fluoro-4-(6-fluorobenzo[d]thiazol-2-yl)-7-hydroxy-3,3-dimethylindolin-1-yl)phenyl)-3-(6-fluorobenzo[d]thiazol-2-yl)urea], in test [1], the IC50 turned out to be 0.3 µM. In test [2], the Ki was 47.2 nM.
As for `CCC1(CC)CN(c2ccccc2NC(=O)Nc2ccc(C3CCN(CC(C)(C)C)CC3)cc2)c2c(O)ccc(C(F)(F)F)c21` [Example 25, 1-(2-(3,3-Diethyl-7-hydroxy-4-(trifluoromethyl)indolin-1-yl)phenyl)-3-(4-(1-neopentylpiperidin-4-yl)phenyl)urea], the IC50 in test [1] was found to be 0.26 µM. Besides, the Ki in test [2] amounted to 6.3 nM.

As usually defined, the IC50 is the point on the concentration scale where inhibition reaches its midpoint. As usually defined, the Ki is a dissociation constant, usually derived from enzyme kinetics or from competition with a known ligand.
